{
  "source": "patent US10604580B2",
  "about": "“Combination therapies with anti-CD38 antibodies” (Janssen Biotech, Inc., priority 2014, dated 2020)",
  "key": {"[1]": {"test_system": "MM cell lines RPMI8226, UM9, and XG1", "assay": "CD38 expression on MM cell lines by flow cytometry (pooled statement)", "assay_type": "cell-based, human", "procedure": "(§1) Expression of several cell surface proteins was determined by flow cytometric analysis using FITC-, PE-, Per-CP-, or APC-conjugated monoclonal antibodies. Anti-CD38, anti-CD138, and anti-CD56 were purchased from Beckman Coulter; anti-CD3, anti-CD16, anti-CD55, anti-CD59 from BD Biosciences; and anti-CD46 from Biolegend. Flow cytometry was done using a FACS-Calibur device (Becton Dickinson); the data were analyzed using the CellQuest software.\n(§2) Interaction of ATRA with nuclear retinoic acid receptors results in altered expression of target genes including induction of CD38 expression (Malavasi F. J Leukoc Biol 90:217-219, 2011; Drach et al., Cancer Res 54:1746-1752, 1994). Therefore, effect of ATRA on MM cell lines RPMI8226, UM9, and XG1 was studied. MM cells were incubated with RPMI-1640 medium alone or with ATRA ranging from 0-25 nM for 48 hours (FIG. 1A) or were incubated with 10 nM ATRA for 24, 48, 72 or 96 hours (FIG. 1B) and then harvested to determine CD38 expression by flow cytometry using a FACS-Calibur device (Becton Dickinson) and anti-CD38 antibody (Beckman Coulter). The data were analyzed using the CellQuest software."}, "[2]": {"test_system": "PBMCs from healthy donors; human MM cell lines L363-CD38, LME-1, RPMI8226 and UM9", "assay": "Effect of ATRA on effector cells (PBMC-induced ADCC)", "assay_type": "cell-based", "conditions": "data not shown", "procedure": "(§3) The effect of ATRA on effector cells was evaluated. […] In the experiments, cells were cultured at 37° C. with RPMI-1640 medium with or without 10 nM ATRA 10 nM for 48 h. Cells were then incubated at 4° C. for 20 min with the appropriate conjugated antibodies panel. Flow cytometric analyses were performed using a FACS-Calibur device (Becton Dickinson); the data were analyzed using the CellQuest software."}, "primary MM cells [3]": {"test_system": "primary MM cells", "assay": "Flow cytometry-based ex vivo CDC assay in BM-MNC", "assay_type": "cell-based, human", "conditions": "for CDC, median: 10 μg/mL daratumumab, pooled patients", "procedure": "(§4) Freshly isolated BM-MNCs, containing 2-57% malignant plasma cells as determined by flow cytometry, were immediately used in ex vivo experiments. […] Pooled human serum (10%) was used as a source of complement. The survival of primary CD138^+ MM cells in the BM-MNCs was determined by flow-cytometry as previously described (van der Veers et al., Haematologica 96:284-290, 2011; van der Veers et al., Blood Cancer J 1:e41, 2011). Surviving MM cells were enumerated by single platform flow-cytometric analysis of CD138^+ cells (with CD138-PE (Beckman Coulter, Miami, Fla., USA)) in the presence of Flow-Count Fluorospheres (Beckman Coulter) to determine absolute numbers of cells."}, "UM9 cells [4]": {"test_system": "UM9 cells", "assay": "CD38 expression by flow cytometry, UM9", "assay_type": "cell-based, human", "conditions": "ATRA", "procedure": "as §1, §2"}, "RPMI8226 cells [5]": {"test_system": "RPMI8226 cells", "assay": "CD38 expression by flow cytometry, RPMI8226", "assay_type": "cell-based, human", "conditions": "ATRA", "procedure": "as §1, §2"}, "RPMI8226 cells [6]": {"test_system": "RPMI8226 cells", "assay": "BLI-based CDC assay, RPMI8226", "assay_type": "cell-based, human", "conditions": "10 nM ATRA 48 hours"}, "[7]": {"test_system": "luciferase-transduced XG1 multiple myeloma cells", "assay": "Humanized multiple myeloma mouse model, tumor growth by BLI", "assay_type": "in vivo, RAG2−/−γc−/− mice", "conditions": "for tumor progression (BLI): single agent plus PBMC-T, daratumumab 8 mg/kg i.p., ATRA 10 mg/kg i.p., weekly BLI for 5 weeks", "from_the_text": "Hybrid scaffolds consisting of three 2-3 mm biphasic calcium phosphate particles were coated in vitro with human mesenchymal stromal cells (MSCs; 2×10^5 cells/scaffold). After a week of in vitro culture in a osteogenic medium, humanized scaffolds were implanted subcutaneously into RAG2^−/−γc^−/− mice, as described previously (Groen et al., Blood. 19; 120:e9-e16, 2012; de Haart et al., Clin. Cancer Res. 19:5591-5601, 2013).\nEight weeks after implantation, mice received a sublethal irradiation dose (3 Gy, 200 kV, 4 mA) and luciferase-transduced XG1 cells were injected directly into the scaffold (1×10^6 cells/scaffold). […] PBMC-T were prepared by Ficoll-Hypaque density-gradient centrifugation of buffy coats, and subsequent depletion of T cells by CD3-beads using the Easy Sep™-technology ([…] Technologies). Tumor growth was monitored by weekly BLI measurements as described previously (Groen et al., Blood. 19; 120:e9-e16, 2012). All animal experiments were conducted after acquiring permission from the local ethical committee for animal experimentation and were in compliance with the Dutch Animal Experimentation Act. The statistical differences between the different treatment groups in the mice experiments were calculated using a Mann-Whitney test. P-values below 0.05 were considered significant.\nLuciferase-transduced XG1 multiple myeloma cells developed into aggressive tumors in immunodeficient RAG2^−/−γc^−/− mice in a humanized bone marrow microenvironment generated by subcutaneous implantation of MSC-coated ceramic scaffolds. […] To follow the outgrowth of the tumor, BLI was performed weekly for 5 weeks."}, "[8]": {"test_system": "primary MM cells (BM-MNCs from 26 MM patients)", "assay": "Ex vivo ATRA exposure of primary MM cells, surface antigen expression by flow cytometry", "assay_type": "cell-based, human", "conditions": "10 nM ATRA, 48 hours", "procedure": "as §1\nEx vivo ATRA exposure (10 nM, 48 hours) of primary MM cells from 26 patients was also studied. In these experiments, BM-MNCs from 26 MM patients were incubated with RPMI-1640 medium alone or with 10 nM ATRA for 48 hours, incubated at 4° C. for 20 min with FITC-conjugated CD38 antibody (Beckman Coulter) and then harvested to determine CD38 expression by flow cytometry. Flow cytometric analyses were performed using a FACS-Calibur device (Becton Dickinson); the data were analyzed using the CellQuest software."}, "UM9 cells [9]": {"test_system": "UM9 cells", "assay": "BLI-based ADCC assay, UM9", "conditions": "10 nM ATRA 48 hours vs solvent control", "method": "(§5) For MM cell lines, CDC and ADCC were assessed using bioluminescence imaging (BLI) based ADCC and CDC assays as described above. For primary MM cells, CDC and ADCC were assessed using Flow cytometry-based ex vivo ADCC and CDC assays in BM-MNC as described above. […] Isotype control was added at 10 μg/ml, and 10% heat-inactivated serum was used as control for CDC."}, "primary MM cells [10]": {"test_system": "primary MM cells", "assay": "Flow cytometry-based ex vivo ADCC assay in BM-MNC", "assay_type": "cell-based, human", "conditions": "for ADCC, median: 10 μg/mL daratumumab, pooled patients", "procedure": "as §4, with “experiments. […] Sample viability at incubation was more than 98%, as assessed by using ToPro-3 (Invitrogen/Molecular Probes).” for “experiments.”"}, "RPMI8226 cells [11]": {"test_system": "RPMI8226 cells", "assay": "BLI-based ADCC assay, RPMI8226", "conditions": "10 nM ATRA 48 hours", "method": "as §5"}, "XG-1 cells [12]": {"test_system": "XG-1 cells", "assay": "CD38 expression by flow cytometry, XG-1", "assay_type": "cell-based, human", "conditions": "ATRA", "procedure": "as §1, §2"}, "XG-1 cells [13]": {"test_system": "XG-1 cells", "assay": "BLI-based CDC assay, XG-1", "assay_type": "cell-based, human", "conditions": "10 nM ATRA 48 hours vs solvent control"}, "[14]": {"test_system": "primary MM cells derived from 16 patients", "assay": "Complement-inhibitory protein expression on primary MM cells by flow cytometry", "assay_type": "cell-based, human", "conditions": "10 nM ATRA, 48 h", "procedure": "as §1, §3"}, "[15]": {"test_system": "RPMI8226, L363 and XG-1 cells", "assay": "Complement-inhibitory protein expression on MM cell lines by flow cytometry", "assay_type": "cell-based, human", "conditions": "0-25 nM ATRA, 48 hour", "procedure": "as §1, §3"}, "XG-1 cells [16]": {"test_system": "XG-1 cells", "assay": "BLI-based ADCC assay, XG-1", "conditions": "10 nM ATRA 48 hours vs solvent control", "method": "as §5"}, "[17]": {"test_system": "MM cell lines XG-1, RPMI8226 and UM9", "assay": "BLI-based ADCC and CDC assays, ATRA alone", "assay_type": "cell-based, human", "conditions": "10 nM ATRA alone"}, "[18]": {"conditions": "after 10 nM ATRA pretreatment 48 hours"}},
  "data": [
    {"compound": "CC1=C(/C=C/C(C)=C/C=C/C(C)=C/C(=O)O)C(C)(C)CCC1", "note": "[ATRA, all-trans retinoic acid]", "values": [
      {"measurement": "increase in CD38 expression", "setting": "[1]; 10 nM ATRA (minimum sufficient), 48 hours, RPMI8226, UM9, XG1", "result": "1.9-4.4 fold"},
      {"measurement": "time of maximum enhancement of CD38 expression", "setting": "[1]; 10 nM ATRA for 24, 48, 72 or 96 hours", "result": 48, "unit": "h"},
      {"measurement": "CD38 expression at higher doses of ATRA", "setting": "[1]; doses above 10 nM up to 25 nM, 48 hours", "result": "did not further enhance"},
      {"measurement": "effect on ability of PBMCs to induce ADCC", "setting": "[2]", "result": "no effect or minimal effect"},
      {"measurement": "patients with significant increase in susceptibility to daratumumab-mediated CDC", "setting": "primary MM cells [3]; ATRA pretreatment 48 hours", "result": "13 out of 16"},
      {"measurement": "effect of ATRA on daratumumab-mediated CDC in cells not responsive to daratumumab alone", "setting": "primary MM cells [3]; for example patients 1, 4, 8, 12, 13, 15 and 16", "result": "induced daratumumab-mediated CDC"},
      {"measurement": "effect of ATRA enhancing daratumumab-mediated CDC in some patient samples", "setting": "primary MM cells [3]; for example patients 6, 7 and 14", "result": "no additional effect"},
      {"measurement": "enhanced CD38 expression", "setting": "UM9 cells [4]", "result": 4.4, "unit": "fold"},
      {"measurement": "upregulation of CD38 expression", "setting": "RPMI8226 cells [5]", "result": 1.9, "unit": "fold"},
      {"measurement": "effect of ATRA pretreatment on daratumumab-mediated CDC", "setting": "RPMI8226 cells [6]", "result": "no significant improvement"},
      {"measurement": "effect of ATRA on anti-MM effect of daratumumab", "setting": "[7]; daratumumab 8 mg/kg plus ATRA 10 mg/kg plus PBMC-T vs daratumumab plus PBMC-T", "result": "significantly enhanced"},
      {"measurement": "tumor progression (BLI)", "setting": "[7]", "result": "no effect"},
      {"measurement": "CD138 expression levels, median increase", "setting": "[8]", "result": 2.0, "unit": "fold"},
      {"measurement": "expression of CD56", "setting": "[8]", "result": "no significant changes"},
      {"measurement": "expression of HLA A/B/C", "setting": "[8]", "result": "no significant changes"},
      {"measurement": "CD38 expression increase, range", "setting": "[8]; 26 patients", "result": "1.0-26.5 fold"},
      {"measurement": "CD38 expression, median increase", "setting": "[8]; 26 patients", "result": 1.7, "unit": "fold"},
      {"measurement": "effect of ATRA pretreatment on daratumumab-mediated ADCC", "setting": "UM9 cells [9]", "result": "significantly increased"},
      {"measurement": "patients with significant increase in susceptibility to daratumumab-mediated ADCC", "setting": "primary MM cells [10]; ATRA pretreatment 48 hours", "result": "8 out of 11"},
      {"measurement": "effect of ATRA on daratumumab-mediated ADCC", "setting": "primary MM cells [10]; most primary MM cells tested", "result": "induced daratumumab-mediated ADCC"},
      {"measurement": "effect of ATRA pretreatment on daratumumab-mediated ADCC", "setting": "RPMI8226 cells [11]", "result": "no significant improvement"},
      {"measurement": "enhanced CD38 expression", "setting": "XG-1 cells [12]", "result": 2.9, "unit": "fold"},
      {"measurement": "effect of ATRA pretreatment on daratumumab-mediated CDC", "setting": "XG-1 cells [13]", "result": "significantly increased"},
      {"measurement": "CD46 expression levels", "setting": "[14]", "result": "did not significantly affect"},
      {"measurement": "expression of CD59, mean reduction", "setting": "[14]; P=0.0047", "result": 37.5, "unit": "%"},
      {"measurement": "expression of CD55, mean reduction", "setting": "[14]; P=0.019", "result": 21.3, "unit": "%"},
      {"measurement": "CD46 expression levels", "setting": "[15]", "result": "reduced expression levels"},
      {"measurement": "CD55 expression levels", "setting": "[15]", "result": "reduced expression levels"},
      {"measurement": "CD59 expression levels", "setting": "[15]", "result": "reduced expression levels"},
      {"measurement": "effect of ATRA pretreatment on daratumumab-mediated ADCC", "setting": "XG-1 cells [16]", "result": "significantly increased"},
      {"measurement": "MM cell lysis by ATRA alone", "setting": "[17]", "result": "no MM cell lysis"}
    ]},
    {"compound": "daratumumab: anti-CD38 antibody, IgG1/κ, VH SEQ ID NO: 4, VL SEQ ID NO: 5, heavy chain SEQ ID NO: 12, light chain SEQ ID NO: 13", "values": [
      {"measurement": "CDC, median", "setting": "primary MM cells [3]; [18]", "result": 43.9, "unit": "%"},
      {"measurement": "CDC, median", "setting": "primary MM cells [3]; without ATRA pretreatment", "result": 16.1, "unit": "%"},
      {"measurement": "tumor progression (BLI)", "setting": "[7]", "result": "markedly slowed tumor progression"},
      {"measurement": "ADCC, median", "setting": "primary MM cells [10]; [18]", "result": 39.5, "unit": "%"},
      {"measurement": "ADCC, median", "setting": "primary MM cells [10]; without ATRA pretreatment", "result": 25.1, "unit": "%"}
    ]}
  ]
}
